Assay results published in patent US6914045B2, “Glycopeptide antibiotics” (Wyeth Holdings Corporation, priority 2001, dated 2005).
Converted amounts (≈) assume the structure as drawn. Read-outs that look alike come from different tables or passages of the source.

Columns and labels:
Streptococcus sp. = assay: in vitro antibacterial evaluation, MIC by broth dilution; assay type: cell-based; conditions: broth dilution, 18 hours at 35° C.
In short: (§1)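 Broth dilution per NCCLS M7-A2 in Mueller-Hinton II medium, inoculum 5×10^5 CFU/mL, antibiotic range 64-0.06 μg/mL. MIC taken as lowest concentration inhibiting growth; Gram-positive panel includes recent clinical isolates resistant to methicillin, penicillin and/or vancomycin.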

Enterococcus sp. = assay: as above; assay type: cell-based; conditions: broth dilution, 18 hours at 35° C.
In short: as §1

Staphylococcus sp. = assay: as above; assay type: cell-based; conditions: broth dilution, 18 hours at 35° C.
In short: as §1

Escherichia coli = assay: as above; assay type: cell-based; conditions: 18 hours at 35° C.
In short: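 Test organisms, which included recent clinical isolates resistant to methicillin, penicillin and/or vancomycin, were inoculated at 5×10^5 CFU/mL into Muller-Hinton II […] containing antibiotic at 64-0.06 μg/mL. Minimum inhibitory concentrations were then read as the lowest level inhibiting growth.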

[1] = tested on: Staphylococcus aureus-SMITH (GC 4543); assay: acute lethal infection in mice; assay type: in vivo; conditions: Staphylococcus, read-out: median effective dose (ED50), Staphylococcus aureus-SMITH (GC 4543)
In short: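 ED50 from 7 day survival ratios pooled over 3 separate tests. Female CD-1 mice, 20+/−2 gm, ip bacterial challenge (trypticase soy broth or hog gastric mucin) lethal to untreated controls in 24-48 hr; iv dosing 30 min after infection in saline or 5% dextrose, n=5/dose.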

[2] = anatomic pathology (histopathology of heart and kidney) in mice; assay type: in vivo; conditions: CD-1 mice, 20 mg/kg intravenously daily for 9 days, necropsy day 10, microscopic histopathology
Procedure: Samples of tissues from necropsied mice were formalin-fixed, paraffin-embedded, sectioned, stained with hematoxylin and eosin, and examined microscopically. Histopathologic findings were recorded. These findings were subjectively graded on a scale corresponding to slight, mild, moderate, marked and severe as compared to untreated controls.

[3] = tested on: Gram-positive bacteria comprised of Staphylococcus sp., Streptococcus sp. and Enterococcus sp.; assay: in vitro antibacterial evaluation, MIC by broth dilution (strain not given); assay type: cell-based
Procedure: Methods for in vitro Antibacterial Evaluation (Table 1)
The minimum inhibitory concentration (MIC), the lowest concentration of the antibiotic which inhibits growth of the test organism, is determined by the broth dilution method using Muller-Hinton II […] (Baltimore Biological Laboratories) following the recommendations of the National Committee for Clinical Laboratory Standards [Methods for dilution antimicrobial susceptibility tests for bacteria that grow aerobically, approved standard M7-A2, National Committee for Clinical Laboratory Standards, Villanova, Pa.].
An inoculum level of 5×10^5 CFU/mL, and a range of antibiotic concentrations (64-0.06 μg/mL) is used. […] The test organisms include a spectrum of Gram-positive bacteria comprised of Staphylococcus sp., Streptococcus sp. and Enterococcus sp. These organisms include recent clinical isolates that are resistant to methicillin, penicillin and/or vancomycin.

Work on N=C1NCC(C(O)C2NC(=O)[C@H](C(O)C3CNC(=N)N3)NC(=O)C(Cc3ccc(O)cc3)NC(=O)[C@H](Cc3ccccc3)NC(=O)CNC(=O)[C@H](CO)NC2=O)N1 (stereo in doubt) [Example 280a, Cyclo[glycylphenylalanyltyrosyl-3-(2-iminoimidazolidin-4-yl)seryl-3-(2-iminoimidazolidin-4-yl)serylseryl]] yielded an MIC (Streptococcus sp.; strain ATCC 6301, read-out: MIC Streptococcus pneumoniae (ATCC 6301)) greater than 128 µg/mL, an MIC (Streptococcus sp.; strain GC 1894, read-out: MIC Streptococcus pneumoniae (GC 1894)) of 128 µg/mL (≈ 161 µM) and an MIC (Streptococcus sp.; strain GC 4563, read-out: MIC Streptococcus pyogenes (GC 4563)) greater than 128 µg/mL. The MIC (Streptococcus sp.; strain GC 4564, read-out: MIC Streptococcus agalactiae (GC 4564)) was greater than 128 µg/mL, the MIC (Streptococcus sp.; strain GC 4565, read-out: MIC Streptococcus pneumoniae (GC 4565)) was greater than 128 µg/mL and the MIC (Enterococcus sp.; Enterococcus avium (GC 4558), read-out: MIC, Enterococcus avium (GC 4558)) was greater than 128 µg/mL. It also gave an MIC (Enterococcus sp.; Enterococcus faecalis (ATCC 29212), read-out: MIC, Enterococcus faecalis (ATCC 29212)) greater than 128 µg/mL, an MIC (Enterococcus sp.; Enterococcus faecalis (GC 4553), read-out: MIC, Enterococcus faecalis (GC 4553)) greater than 128 µg/mL and an MIC (Enterococcus sp.; Enterococcus faecalis (GC 4554), read-out: MIC, Enterococcus faecalis (GC 4554)) greater than 128 µg/mL. It also gave an MIC (Enterococcus sp.; Enterococcus faecalis (GC 6189), read-out: MIC, Enterococcus faecalis (GC 6189)) greater than 128 µg/mL, an MIC (Enterococcus sp.; Enterococcus faecium (GC 2243), read-out: MIC, Enterococcus faecium (GC 2243)) greater than 128 µg/mL and an MIC (Enterococcus sp.; Enterococcus faecium (GC 4556), read-out: MIC, Enterococcus faecium (GC 4556)) greater than 128 µg/mL. It also gave an MIC (Enterococcus sp.; Enterococcus faecium (GC 4557), read-out: MIC, Enterococcus faecium (GC 4557)) greater than 128 µg/mL, an MIC (Enterococcus sp.; strain ATCC 29212, read-out: MIC Enterococcus faecalis (ATCC 29212)) greater than 128 µg/mL and an MIC (Enterococcus sp.; strain GC 2242, read-out: MIC Enterococcus faecalis (GC 2242)) greater than 128 µg/mL. The MIC (Enterococcus sp.; strain GC 2243, read-out: MIC Enterococcus faecium (GC 2243)) was greater than 128 µg/mL, the MIC (Enterococcus sp.; strain GC 2691, read-out: MIC Enterococcus faecalis (GC 2691)) was greater than 128 µg/mL and the MIC (Enterococcus sp.; strain GC 3059, read-out: MIC Enterococcus faecalis (GC 3059)) was greater than 128 µg/mL. It also gave an MIC (Enterococcus sp.; strain GC 4552, read-out: MIC Enterococcus faecalis (GC 4552)) greater than 128 µg/mL, an MIC (Enterococcus sp.; strain GC 4553, read-out: MIC Enterococcus faecalis (GC 4553)) greater than 128 µg/mL and an MIC (Enterococcus sp.; strain GC 4554, read-out: MIC Enterococcus faecalis (GC 4554)) greater than 128 µg/mL. For the same molecule, the MIC (Enterococcus sp.; strain GC 4556, read-out: MIC Enterococcus faecium (GC 4556)) was greater than 128 µg/mL, the MIC (Enterococcus sp.; strain GC 4557, read-out: MIC Enterococcus faecium (GC 4557)) was greater than 128 µg/mL and the MIC (Enterococcus sp.; strain GC 4558, read-out: MIC Enterococcus avium (GC 4558)) was greater than 128 µg/mL. It also gave an MIC (Enterococcus sp.; strain GC 6189, read-out: MIC Enterococcus faecalis (GC 6189)) greater than 128 µg/mL, an MIC (Staphylococcus sp.; Staphylococcus, read-out: MIC Coagulase Negative Staphylococcus (GC 4547)) of 128 µg/mL (≈ 161 µM) and an MIC (Staphylococcus sp.; Staphylococcus, read-out: MIC Coagulase Negative Staphylococcus (GC 4548)) greater than 128 µg/mL. For the same molecule, the MIC (Staphylococcus sp.; Staphylococcus, read-out: MIC Coagulase Negative Staphylococcus (GC 4549)) was 128 µg/mL (≈ 161 µM), the MIC (Staphylococcus sp.; Staphylococcus, read-out: MIC Coagulase Negative Staphylococcus (GC 4551)) was greater than 128 µg/mL and the MIC (Staphylococcus sp.; Staphylococcus, read-out: MIC Coagulase Negative Staphylococcus (GC 6257)) was 128 µg/mL (≈ 161 µM). For the same molecule, the MIC (Staphylococcus sp.; Staphylococcus, read-out: MIC Staphylococcus aureus-SMITH (GC 4543)) was greater than 128 µg/mL, the MIC (Staphylococcus sp.; read-out: MIC Staphylococcus aureus (ATCC 29213)) was greater than 128 µg/mL and the MIC (Staphylococcus sp.; read-out: MIC Staphylococcus aureus (GC 1131)) was greater than 128 µg/mL. It also gave an MIC (Staphylococcus sp.; read-out: MIC Staphylococcus aureus (GC 3051)) greater than 128 µg/mL, an MIC (Staphylococcus sp.; read-out: MIC Staphylococcus aureus (GC 3053)) greater than 128 µg/mL and an MIC (Staphylococcus sp.; read-out: MIC Staphylococcus aureus (GC 4541)) greater than 128 µg/mL. It also gave an MIC (Staphylococcus sp.; read-out: MIC Staphylococcus aureus (GC 4542)) greater than 128 µg/mL, an MIC (Staphylococcus sp.; read-out: MIC Staphylococcus aureus (GC 4544)) greater than 128 µg/mL and an MIC (Staphylococcus sp.; read-out: MIC Staphylococcus aureus (GC 4545)) greater than 128 µg/mL. The MIC (Staphylococcus sp.; read-out: MIC Staphylococcus haemolyticus (GC 4546)) was 128 µg/mL (≈ 161 µM), the “MIC Staphylococcus aureus (ATCC 29213)” value (Staphylococcus sp.; strain ATCC 29213) was greater than 128 µg/mL and the “MIC Staphylococcus aureus (GC 1131)” value (Staphylococcus sp.; strain GC 1131) was greater than 128 µg/mL. For the same molecule, the “MIC Staphylococcus aureus (GC 3051)” value (Staphylococcus sp.; strain GC 3051) was greater than 128 µg/mL, the “MIC Staphylococcus aureus (GC 3053)” value (Staphylococcus sp.; strain GC 3053) was greater than 128 µg/mL and the “MIC Staphylococcus aureus (GC 4541)” value (Staphylococcus sp.; strain GC 4541) was greater than 128 µg/mL. The “MIC Staphylococcus aureus (GC 4542)” value (Staphylococcus sp.; strain GC 4542) was greater than 128 µg/mL, the “MIC Staphylococcus aureus (GC 4544)” value (Staphylococcus sp.; strain GC 4544) was greater than 128 µg/mL and the “MIC Staphylococcus aureus (GC 4545)” value (Staphylococcus sp.; strain GC 4545) was greater than 128 µg/mL. The “MIC Staphylococcus haemolyticus (GC 4546)” value (Staphylococcus sp.; strain GC 4546) was 128 µg/mL (≈ 161 µM), the “MIC Coagulase Negative Staphylococcus (GC 4547)” value (Staphylococcus sp.; strain GC 4547) was 128 µg/mL (≈ 161 µM) and the “MIC Coagulase Negative Staphylococcus (GC 4548)” value (Staphylococcus sp.; strain GC 4548) was greater than 128 µg/mL. The “MIC Coagulase Negative Staphylococcus (GC 4549)” value (Staphylococcus sp.; strain GC 4549) was 128 µg/mL (≈ 161 µM), the “MIC Coagulase Negative Staphylococcus (GC 4551)” value (Staphylococcus sp.; strain GC 4551) was greater than 128 µg/mL and the “MIC Coagulase Negative Staphylococcus (GC 6257)” value (Staphylococcus sp.; strain GC 6257) was 128 µg/mL (≈ 161 µM). For the same molecule, the “MIC Staphylococcus aureus-SMITH (GC 4543)” value (Staphylococcus sp.; strain SMITH GC 4543) was greater than 128 µg/mL, the MIC (Escherichia coli; ATCC25922, Escherichia coli (ATCC 25922), read-out: MIC, Escherichia coli (ATCC 25922)) was 128 µg/mL (≈ 161 µM) and the MIC (Escherichia coli; Escherichia coli (GC 4559), read-out: MIC, Escherichia coli (GC 4559)) was 64 µg/mL (≈ 80.5 µM). For the same molecule, the MIC (Escherichia coli; Escherichia coli (GC 4560), read-out: MIC, Escherichia coli (GC 4560)) was 64 µg/mL (≈ 80.5 µM), the ED50 [1] was greater than 8 mg/kg and the “Anatomical Pathology (Day 10), Heart” value [2] was 0. For the same molecule, the “Anatomical Pathology (Day 10), Kidney” value [2] was “++”, the MIC ([3]; Table 2 section r2574-r2600, column 1, 18 hours at 35° C., read-out: MIC, strain of column 1) was greater than 128 µg/mL and the MIC ([3]; Table 2 section r2574-r2600, column 2, 18 hours at 35° C., read-out: MIC, strain of column 2) was 128 µg/mL (≈ 161 µM). For the same molecule, the MIC ([3]; Table 2 section r2574-r2600, column 3, 18 hours at 35° C., read-out: MIC, strain not given) was greater than 128 µg/mL, the MIC ([3]; Table 2 section r2574-r2600, column 5, 18 hours at 35° C., read-out: MIC, strain of column 5) was greater than 128 µg/mL and the MIC ([3]; Table 2 section r2574-r2600, column 7, 18 hours at 35° C., read-out: MIC, strain not given) was greater than 128 µg/mL. The MIC ([3]; Table 2 section r2574-r2600, column 9, 18 hours at 35° C., read-out: MIC, strain of column 9) was greater than 128 µg/mL and the MIC ([3]; Table 2 section r2574-r2600, column 10, 18 hours at 35° C., read-out: MIC, strain of column 10) was greater than 128 µg/mL.
